Laboratory results reported in patent US8053442B2, “Organic compounds” (Novartis AG, priority 2008, dated 2011).
pIC50: −log10 of the molar value.

Key:
[1] = test system: Plasmodium falciparum, NF54 (sensitive to all known drugs); assay: In vitro assay, 3H-hypoxanthine incorporation, Plasmodium falciparum NF54; assay type: cell-based; details: NF54 (CQ sensitive P. falciparum strain)
Method: The compounds of the invention and standard compounds are tested in vitro against two standard parasite strains: Plasmodium falciparum, NF54 (sensitive to all known drugs) and Plasmodium falciparum, K1 (chloroquine and pyrimethamine resistant). Chloroquine diphosphate (Sigma C6628), artemisinin (Sigma 36159-3), artesunate (Mepha), atovaquone (GSK) and proguanil (Roche) are used as the standard drugs. The testing is carried out in 96-well plates (Costar™ 96-well microtiter plates).
Smears of the stock cultures of the two strains are prepared and the parasitemia for each culture is determined. Cultures with parasitemia lower than 2% are not used.
Stock compound solutions are prepared in DMSO at 10 mg/mL. If insoluble in DMSO, other solvents may be used according to the recommendations of the supplier. […]
The plates are harvested with a Betaplate™ cell harvester (Wallac, Zurich, Switzerland), which transfers the red blood cells onto a glass fiber filter and washes the filters with distilled water. The dried filters are inserted into a plastic foil with 10 mL of scintillation fluid and counted in a Betaplate™ liquid scintillation counter (Wallac, Zurich, Switzerland). The results are recorded as counts per minute (cpm) per well at each drug concentration.
Data is transferred into a graphic programme (e.g. EXCEL) and expressed as percentage of the untreated controls. […]

[2] = test system: Plasmodium berghei, GFP ANKA strain; assay: In vivo assay, P. berghei mouse model; details: read-out: ED50 in P. berghei mouse model
Method: The Plasmodium berghei, GFP ANKA strain described in B. Franke-Fayard et al., Mol. Biochem. Parasitol., 137(1), 23-33, 2004 is used. This strain is maintained in female NMRI mice (20-22 g). The mice are kept in Standard Macrolon cages type II under standard conditions at 22° C. and 60-70% relative humidity, on a diet of pellets (PAB45—NAFAG 9009, Provimi Kliba AG, CH-4303 Kaiseraugst, Switzerland) and water ad libitu. Chloroquine (Sigma C6628) and artemisinin (Sigma 36, 159-3) are used as the standard drugs.
Stock compound solutions are prepared in 100% DMSO (suspended) or a solution consisting of 70% Tween-80 (d=1.08 g/mL) and 30% ethanol (d=0.81 g/mL), followed by a 10-fold dilution in H2O. […]
On days 1, 2 and 3 (24, 48 and 72 hours post-infection), the experimental groups are treated with a single daily dose per oral dosing (p.o). […] The dosage is determined by a preliminary toxicity test. […]
On day 4, 24 hours after the last drug treatment, 1 μL tail blood is taken and dissolved in 1 mL PBS buffer. Parasitaemia is determined with a FACScan (Becton Dickinson) by counting 100,000 red blood cells. The difference between the mean value of the control group and those of the experimental groups is calculated and expressed as a percentage relative to the control group (=activity). […] The survival of the animals is monitored for up to 30 days. […]

SMILES	pIC50 [1]	ED50 [2] [mg/kg]
C[C@@H]1Cc2c([nH]c3cc(Cl)c(F)cc23)[C@]2(N1)C(=O)Nc1ccc(Cl)cc12 [Example 50, (1S,3R)-5′,7-Dichloro-6-fluoro-3-methyl-2,3,4,9-tetrahydrospiro[β-carboline-1,3′-indol]-2′(1′H)-one]	9.05	1.2
C[C@H]1Cc2c([nH]c3ccc(Cl)cc23)[C@@]2(N1)C(=O)Nc1ccc(Cl)cc12 [Example 62, (1R,3S)-5′,6-Dichloro-3-methyl-2,3,4,9-tetrahydrospiro[β-carboline-1,3′-indol]-2′(1′H)-one]	8.47	1.5
